# Experimental data from patent US11109592B2, “Selective weed control methods” (Corteva Agriscience LLC, priority 2013, dated 2021).
# Read-outs that look alike come from different tables or passages of the source.
# How the values were obtained:
# [1] = test system: Juncea canola (Brassica juncea); conditions: for injury to Juncea canola, on average did not exceed: five field trials; for Percent (%) Crop Injury (Mean Value): B12-B14 crop stage
# [2] = test system: sunflowers, sorghum, yellow mustard, Brassicaceae-family crops, and sugar beets; test: Overall crop safety, post-emergence application; format: in vivo; conditions: post-emergence application rates of ≤10 g ae/ha
# [3] = test system: certain members of the Amaranthaceae, Asteraceae, Lamiaceae, Rubiaceae, Papaveraceae and Brassicaceae families; test: Herbicidal activity (LD90) on plant families; format: in vivo; conditions: grams acid equivalent per hectare
# [4] = test system: spring rutabaga (Brassica napus); conditions: for injury to rutabaga, on average did not exceed: three field trials; for Percent (%) Crop Injury (Mean Value): B12-B14 crop stage
# [5] = test system: broadleaf weeds including cleavers (Galium aparine), chickweed (Stellaria media), pigweed (Amaranthus spp.), lamb's-quarters (Chenopodium album) and others; test: Efficacy on commercially relevant broadleaf weeds; format: in vivo; conditions: application rate of 2.5 to 10 g ae/ha
# [6] = test system: spring turnip (Brassica rapa); conditions: for injury to turnip, on average did not exceed: three field trials; for Percent (%) Crop Injury (Mean Value): B12-B16 crop stage
# [7] = test system: Winfred forage brassica (Brassica rapa × oleracea); test: Field trial, crop injury to Winfred forage brassica, post-emergence; format: in vivo; conditions: B14-B16 crop stage, Australia
# [8] = test system: common lambsquarters (Chenopodium album L.); test: Field trial in sugar beet, visual control of common lambsquarters; format: in vivo; conditions: 36 days following last application
# Description: (§1) As used herein, selective post-emergent control of undesirable vegetation means preventing, reducing, killing, or otherwise adversely modifying the development of the undesirable vegetation in the presence of crop plants with limited adverse effect on the crop plants. For example, a broadleaf weed control of 80% (rated visually) with crop injury of less than or equal to 20%, rated visually, would constitute selective control. In some embodiments the adverse effect on crop plants is limited to less than 10% visually rated crop injury. […] Visual weed control is a composite rating accounting for reductions in pest plant biomass and/or stand reduction.
# (§2) Treatments 4 and 5 were split applications at the two indicated growth stages.
# [9] = test system: spring sunflower (Helianthus annuus); test: Field trial, crop injury to spring sunflower, post-emergence; conditions: B12-B14 crop stage, Australia
# [10] = test system: wild buckwheat (Polygonum convolvulus L.); test: Field trial in sugar beet, visual control of wild buckwheat; format: in vivo; conditions: 36 days following last application
# Description: as §1, §2
# [11] = test system: spring sorghum (Sorghum vulgare); test: Field trial, crop injury to spring sorghum, post-emergence; conditions: B17-B22 crop stage
# [12] = test system: yellow mustard (Sinapis alba); test: Field trial, crop injury to and yield of yellow mustard, post-emergence; conditions: B14-B15 crop stage
# [13] = test system: spring kale (Brassica oleracea); test: Field trial, crop injury to spring kale, post-emergence; format: in vivo; conditions: B12-B16 crop stage
# Description: Data from the trials on spring kale (Brassica oleracea) are summarized Table 4.
# [14] = rate 2.5 (g ae/ha), 1 week after application
# [15] = rate 2.5, 3-5 weeks after application
# [16] = rate 2.5, 6-10 weeks after application
# [17] = rate 5, 1 week after application
# [18] = rate 5, 3-5 weeks after application
# [19] = rate 5, 6-10 weeks after application
# [20] = rate 10, 1 week after application
# [21] = rate 10, 3-5 weeks after application
# [22] = rate 10, 6-10 weeks after application
# [23] = rate 20, 1 week after application
# [24] = rate 20, 3-5 weeks after application
# [25] = rate 20, 6-10 weeks after application
# [26] = treatment 1: 1.0 g ae/ha at BEAVA stage B12-B16
# [27] = treatment 2: 2.0 g ae/ha at BEAVA stage B12-B16
# [28] = treatment 3: 3.0 g ae/ha at BEAVA stage B12-B16
# [29] = treatment 4: split application 0.5 g ae/ha at B10-B12 and 0.5 g ae/ha at B12-B16
# [30] = treatment 5: split application 1.0 g ae/ha at B10-B12 and 1.0 g ae/ha at B12-B16
# [31] = rate 2.5 (g ae/ha), 3-5 weeks after application
structure (smiles),measurement,setting,value
"COc1c(Cl)ccc(-c2cc(N)c(Cl)c(C(=O)O)n2)c1F [Compound I, 4-amino-3-chloro-6-(4-chloro-2-fluoro-3-methoxyphenyl)pyridine-2-carboxylic acid]","injury to Juncea canola, on average did not exceed",[1]; 2.5 g ae/ha,≤ 7.5%
same,"injury to Juncea canola, on average did not exceed",[1]; 5 g ae/ha,≤ 11.3%
same,"injury to Juncea canola, on average did not exceed",[1]; 10 g ae/ha,≤ 5.5%
same,crop injury,[2],little to no crop injury
same,LD90,[3],≤ 10 g ae/ha
same,"injury to rutabaga, on average did not exceed",[4]; 2.5 g ae/ha,≤ 6.3%
same,"injury to rutabaga, on average did not exceed",[4]; 5 g ae/ha,≤ 10%
same,"injury to rutabaga, on average did not exceed",[4]; 10 g ae/ha,≤ 15%
same,efficacy on commercially relevant broadleaf weeds,[5],highly efficacious
same,"injury to turnip, on average did not exceed",[6]; 2.5 g ae/ha,≤ 2.5%
same,"injury to turnip, on average did not exceed",[6]; 5 g ae/ha,≤ 5%
same,"injury to turnip, on average did not exceed",[6]; 10 g ae/ha,≤ 7.5%
COC(=O)c1nc(-c2ccc(Cl)c(OC)c2F)cc(N)c1Cl [4-Amino-3-chloro-6-(4-chloro-2-fluoro-3-methoxyphenyl)pyridine-2-carboxylic acid methyl ester],Percent (%) Crop Injury (Mean Value),[1]; [14],2.5%
same,Percent (%) Crop Injury (Mean Value),[1]; [15],7.5%
same,Percent (%) Crop Injury (Mean Value),[1]; [16],5%
same,Percent (%) Crop Injury (Mean Value),[1]; [17],3.8%
same,Percent (%) Crop Injury (Mean Value),[1]; [18],10.5%
same,Percent (%) Crop Injury (Mean Value),[1]; [19],11.3%
same,Percent (%) Crop Injury (Mean Value),[1]; [20],3.8%
same,Percent (%) Crop Injury (Mean Value),[1]; [21],5.5%
same,Percent (%) Crop Injury (Mean Value),[1]; [22],3.8%
same,Percent (%) Crop Injury (Mean Value),[1]; [23],30%
same,Percent (%) Crop Injury (Mean Value),[1]; [24],13.8%
same,Percent (%) Crop Injury (Mean Value),[1]; [25],0%
same,Percent (%) Crop Injury (Mean Value),[7]; [16],7.5%
same,Percent (%) Crop Injury (Mean Value),[7]; [18],9.2%
same,Percent (%) Crop Injury (Mean Value),[7]; [19],7.5%
same,Percent (%) Crop Injury (Mean Value),[7]; [21],8.8%
same,Percent (%) Crop Injury (Mean Value),[7]; [22],0%
same,Percent (%) Crop Injury (Mean Value),[7]; [24],11.3%
same,Percent (%) Visual Control CHEAL,[8]; [26],35%
same,Percent (%) Visual Control CHEAL,[8]; [27],98%
same,Percent (%) Visual Control CHEAL,[8]; [28],95.8%
same,Percent (%) Visual Control CHEAL,[8]; [29],30%
same,Percent (%) Visual Control CHEAL,[8]; [30],96.8%
same,Percent (%) Crop Injury (Mean Value),[9]; [31],6.7%
same,Percent (%) Crop Injury (Mean Value),[9]; [16],6.7%
same,Percent (%) Crop Injury (Mean Value),[9]; [18],13.3%
same,Percent (%) Crop Injury (Mean Value),[9]; [19],11.7%
same,Percent (%) Crop Injury (Mean Value),[9]; [21],15%
same,Percent (%) Crop Injury (Mean Value),[9]; [22],8.3%
same,Percent (%) Crop Injury (Mean Value),[9]; [24],22.3%
same,Percent (%) Crop Injury (Mean Value),[9]; [25],6.7%
same,Percent (%) Visual Control POLCO,[10]; [26],5%
same,Percent (%) Visual Control POLCO,[10]; [27],22.5%
same,Percent (%) Visual Control POLCO,[10]; [28],60%
same,Percent (%) Visual Control POLCO,[10]; [29],20%
same,Percent (%) Visual Control POLCO,[10]; [30],35%
same,Percent (%) Crop Injury (Mean Value),[11]; [31],8.3%
same,Percent (%) Crop Injury (Mean Value),[11]; [16],13.3%
same,Percent (%) Crop Injury (Mean Value),[11]; [18],11.7%
same,Percent (%) Crop Injury (Mean Value),[11]; [19],18.3%
same,Percent (%) Crop Injury (Mean Value),[11]; [21],18.3%
same,Percent (%) Crop Injury (Mean Value),[11]; [22],15%
same,Percent (%) Crop Injury (Mean Value),[11]; [24],13.3%
same,Percent (%) Crop Injury (Mean Value),[11]; [25],15%
same,Percent (%) Crop Injury (Mean Value of Four Observations),[12]; [14],8.5%
same,Percent (%) Crop Injury (Mean Value of Four Observations),"[12]; rate 2.5, 2 weeks after application",4.8%
same,Percent (%) Crop Injury (Mean Value of Four Observations),[12]; [15],4.5%
same,Percent (%) Crop Injury (Mean Value of Four Observations),[12]; [17],14.3%
same,Percent (%) Crop Injury (Mean Value of Four Observations),"[12]; rate 5, 2 weeks after application",10%
same,Percent (%) Crop Injury (Mean Value of Four Observations),[12]; [18],7.5%
same,Percent (%) Crop Injury (Mean Value of Four Observations),[12]; [20],21.3%
same,Percent (%) Crop Injury (Mean Value of Four Observations),"[12]; rate 10, 2 weeks after application",25%
same,Percent (%) Crop Injury (Mean Value of Four Observations),[12]; [21],16.3%
same,Percent (%) Crop Injury (Mean Value of Four Observations),[12]; [23],23.8%
same,Percent (%) Crop Injury (Mean Value of Four Observations),"[12]; rate 20, 2 weeks after application",35%
same,Percent (%) Crop Injury (Mean Value of Four Observations),[12]; [24],25%
same,Percent (%) Crop Injury (Mean Value),[4]; [14],6.3%
same,Percent (%) Crop Injury (Mean Value),[4]; [15],3.8%
same,Percent (%) Crop Injury (Mean Value),[4]; [17],10%
same,Percent (%) Crop Injury (Mean Value),[4]; [18],3.3%
same,Percent (%) Crop Injury (Mean Value),[4]; [20],15%
same,Percent (%) Crop Injury (Mean Value),[4]; [21],7.5%
same,Percent (%) Crop Injury (Mean Value),[4]; [23],27.5%
same,Percent (%) Crop Injury (Mean Value),[4]; [24],15%
same,Percent (%) Crop Injury (Mean Value),[6]; [14],2.5%
same,Percent (%) Crop Injury (Mean Value),[6]; [15],2.5%
same,Percent (%) Crop Injury (Mean Value),[6]; [17],5%
same,Percent (%) Crop Injury (Mean Value),[6]; [18],1.3%
same,Percent (%) Crop Injury (Mean Value),[6]; [20],7.5%
same,Percent (%) Crop Injury (Mean Value),[6]; [21],7.5%
same,Percent (%) Crop Injury (Mean Value),[6]; [24],7.5%
same,Percent (%) Crop Injury (Mean Value),[13]; [14],2.5%
same,Percent (%) Crop Injury (Mean Value),[13]; [15],0%
same,Percent (%) Crop Injury (Mean Value),[13]; [17],1.3%
same,Percent (%) Crop Injury (Mean Value),[13]; [18],1.3%
same,Percent (%) Crop Injury (Mean Value),[13]; [20],2.5%
same,Percent (%) Crop Injury (Mean Value),[13]; [21],3.8%
same,Percent (%) Crop Injury (Mean Value),[13]; [23],15%
